The source of these data is patent publication US5093337A, “Substituted derivatives of 20,21-dinoreburnamenine, their use as medicaments and the pharmaceutical compositions containing them” (Roussel Uclaf, priority 1987, dated 1992).

For test [1], the system named is adrenergic alpha2 receptors. Description: Affinity for adrenergic alpha2 receptors (inhibition of specific 3H rauwolscine fixation, rat cortex). The format is binding, rat (male; brain cortices). The note with it: from CD (phentolamine) and CX (product) inhibiting 50% of specific fixation of 3H rauwolscine 0.15 nM, 25° C., 45 minutes. As for the experimental part:
1) Affinity for adrenergic alpha2 receptors:
10 cortices removed from the brains of male rats weighing on average 150 g are homogenized in 90 ml of 0.32M sucrose. After centrifuging 1,000 g of the homogenized mixture for 10 minutes at 0° C., the supernatant is centrifuged at 30,000 g for 10 minutes at 0°/+4° C. The deposit is put in suspension in 240 ml of buffer TrisHCl 50 mM pH 7.7, and centrifuged at 30,000 g for 15 minutes at 0°/+4° C. The new deposit obtained is put in suspension in 480 ml of buffer NaKPO4 pH 7.4 50 mM.
2 ml of suspension is then incubated for 45 minutes at 25° C. in the presence of ^3 H rauwolscine at a 0.15 nM concentration:
ii) with increasing concentrations of the product under test or,
iii) in order to determine the non-specific fixation,
with non-radioactive phentolamine at a 10^-5 M concentration.
The incubated suspensions are filtered on Whatman GF/C and the filters are washed three times with 5 ml of buffer NaKPO4 pH 7.4 at 0° C. The radioactivity of the filters is measured by liquid scintillation.
The affinity of the product tested for adrenergic alpha2 receptors is given in relation to the phentolamine as a reference product.
CD=concentration of phentolamine inhibiting 50% of the specific fixation of ^3 H rauwolscine;
CX=concentration of the product under test inhibiting 50% of the specific fixation of ^3 H rauwolscine.
The relative affinity is given by the relation: [formula]

A short description of test [2]: Asphyxic anoxemia (latency time for disappearance of the ECoG). In kind it is in vivo, Sprague Dawley (Charles River) male rat. The note with it: 10 mg/kg intravenous, 3 minutes before asphyxia; rat; read-out: % of variation of the latency time for disappearance of the ECoG after asphyxia. How it is done: The test is carried out using a Sprague Dawley (Charles River) male rat anaesthetized with ethyl ether, immobilized (tube curare 1 mg/kg I.V.) and artificially ventilated with air. The electrocorticogram (ECoG) and the arterial pressure are recorded. The rectal temperature is maintained at around 36° C. and the level of carbon dioxide in the blood is maintained between 35 and 40 torr. The products are administered at a dose of 10 mg/kg by intravenous route in a volume of 1 ml/kg 3 minutes before asphyxia obtained by stopping the artificial respiration. The latency time for the disappearance of the ECoG is measured.

The nature of test [3]: Test for hypobar anoxemia in a mouse (survival time). In kind it is in vivo. As to conditions: 10 mg/kg intraperitoneal, 60 minutes before the test; 600 mmHg depression; relative to control mice. How it is done: 3) Test for hypobar anoxemia in a mouse
This consists of measuring for a maximum duration of 3 minutes the survival time of mice placed in a 2 liter chamber in which a 600 mmHg depression is carried out. Mice deprived of food for 6 hours are used. The products are administered at a dose of 10 mg/kg by intraperitoneal route in a volume of 0.2 ml/10 g 60 minutes before the test.
The increase in survival time is noted, expressed as a percentage of the animals treated in relation to the control animals, submitted to the same conditions.

Test [4] can be described thus: Anti-amnesic effect in a passive avoidance (electric shock treatment amnesia). The format is in vivo. The note with it: 2 mg/kg by oral route; rat. From the text:
Anti-Amnesic Effect in a Passive Avoidance
Rats are placed individually in the lighted compartment of a box having two compartments, the other one being dark. They take refuge immediately in the dark compartment and upon their entry the rats receive an electric shock (1 mA/5 sec) from the grated floor. […] In the second group, the electric shock is immediately followed by the application of an amnesic electric shock treatment (60 mA, 0.6 ms, 0.6 s) (electric shock treatment control group). The third group is identical to the second, but the electric shock treatment is immediately followed by the administration of the compound under test (treated group). Twenty-four hours later, the animals are replaced in the lighted compartment of the box and the latency time of entry into the dark compartment is measured (up to 300 sec. maximum). For the controls, this time is close to 300 sec. The electric shock treatment controls on the other hand move into the dark compartment much more rapidly (amnesic effect).

Test [5] can be described thus: Test for spontaneous alternation after septal cholinergic injury. In kind it is in vivo. The note with it: range of doses from 1 to 10 mg/kg i.p., 30 minutes before each session; rat. The text has this: 4) Test for spontaneous alternation after septal cholinergic injury
The behaviour of spontaneous alternation is an essential characteristic of the behavioural performance of the rat, which, put in a situation of choice between a familiar stimulus and a new stimulus, will choose the latter. Thus, in the case of a labyrinth Y, the animal will preferably choose an arm which has not yet been explored as opposed to an arm that he has just visited (spontaneous alternation). This faculty of discrimination between the "familiar" and the "new" implies the coming into play of a form of memory, the Short Term Memory or Work Memory. The performances of spontaneous alternation allow therefore an evaluation of the capacity of this type of memory.
The method used consists of creating a mnesic deficit in the rat, by lesion of the septo-hippocampic cholinergic system, and of researching whether the product under test is capable of reversing this deficit. In the present case, this deficit is evaluated in a spontaneous alternation behaviour; the lesioned animal has alternation performances of about 50%, because it carries out its choices by chance.
Each experiment comprises a control-vehicle group, a lesioned-vehicle group and one or two lesioned groups receiving the product under test. […]

The nature of test [6]: Test for anti-depressive activity (forced swimming, duration of immobility). The note with it: ip, 5 min; i.p. 24, 5 and half an hour before the test; immobility over 5 minutes; rat; read-out: AD50 (the source's name). The format is in vivo, Sprague Dawley rats. How it is done: 5) Test for anti-depressive activity
The tests are carried out on groups of 5 Sprague Dawley rats. The unaffected animals are placed for 15 minutes in a vertical cylinder of plexiglass (diameter: 18 cm, height: 40 cm) containing water at 25° C. at a height of 15 cm (initial swimming test). They are then dried for 15 minutes in a chamber heated to 32° C.; 24 hours later, they are replaced in the cylinder, filled with water, and the total duration of the periods of immobility is measured over 5 minutes.
The compound is administered i.p. successively 24, 5 and half an hour before the test. The first administration takes place immediately after the initial swimming test, just before the animals are replaced in their breeding box.
The averages of the treated groups are compared with those of the control group using Dunnett's test.

For `Cc1ccc2c3c4n(c2c1)CC[C@H]1CCCN(CC3)[C@H]41` (relative stereo) [Example 12, [(±) (16alpha)]-14,15-dihydro-11-methyl-20,21-dinor-eburnamenine], the “RAL (relative affinity, in relation to phentolamine as reference product)” value in test [1] is listed as 39. In test [2], the change in vivo at 10 mg/kg amounted to 18%.

Regarding `COc1ccc2c3c4n(c2c1)[C@@H](O)C[C@H]1CCCN(CC3)[C@H]41` (relative stereo) [Example 21, [(±) (14beta, 16alpha)]-14,15-dihydro-11-methoxy-20,21-dinoreburnamenin-14-ol], the change in vivo at 10 mg/kg in test [2] worked out at 30%.

For `COc1ccc2c(c1)c1c3n2C=C[C@H]2CCCN(CC1)[C@H]32` (relative stereo) [Example 29, [(±) (16alpha)]-10-methoxy-20,21-dinoreburnamenine], the change in vivo at 10 mg/kg in test [2] stood at 25%.

Turning to `Cc1ccc2c(c1)c1c3n2C=C[C@H]2CCCN(CC1)[C@H]32` (relative stereo) [Example 16, [(±) (16alpha)]-10-methyl-20,21-dinoreburnamenine], the “RAL (relative affinity, in relation to phentolamine as reference product)” value in test [1] worked out at 136. In test [2], the change in vivo at 10 mg/kg was determined as 22%.

With `O[C@@H]1C[C@H]2CCCN3CCc4c(n1c1ccc(Cl)cc41)[C@H]23` (relative stereo) [Example 4, [(±) (14alpha, 16alpha)]-10-chloro-14,15-dihydro-20,21-dinoreburnamenin-14-ol], the “RAL (relative affinity, in relation to phentolamine as reference product)” value in test [1] stood at 35.

Turning to `Cc1ccc2c(c1)c1c3n2CC[C@H]2CCCN(CC1)[C@H]32` (relative stereo) [Example 18, [(±) (16alpha)]-14,15-dihydro-10-methyl-20,21-dinoreburnamenine], the “RAL (relative affinity, in relation to phentolamine as reference product)” value in test [1] was determined as 39.

In the case of `COc1ccc2c3c4n(c2c1)C=C[C@H]1CCCN(CC3)[C@H]41` (relative stereo) [Example 24, [(±) 16alpha]-11-methoxy-20,21-norburnamenine], in test [2], the change in vivo at 10 mg/kg stood at 35%.

In the case of `Cc1ccc2c3c4n(c2c1)[C@H](O)C[C@H]1CCCN(CC3)[C@H]41` (relative stereo) [Example 8, [(±) (14alpha, 16alpha)]-14,15-dihydro-11-methyl-20,21-dinoreburnamenin-14-ol], in test [2], the change in vivo at 10 mg/kg came to 37%.

For the molecule `COc1ccc2c3c4n(c2c1)[C@H](O)C[C@H]1CCCN(CC3)[C@H]41` (relative stereo) [Example 22, [(±) (14alpha, 16alpha)]-14,15-dihydro-11-methoxy-20,21-dinoreburnamenin-14-ol], in test [2], the change in vivo at 10 mg/kg was 18%.

As to `O=[N+]([O-])c1cccc2c1c1c3n2C=C[C@H]2CCCN(CC1)[C@H]32` (relative stereo) [Example 41, [(±) (16alpha)]-9-nitro-20,21-dinoreburnamenine], in test [3], the “% of increase in survival time” value is 13%.

For the molecule `COc1ccc2c(c1)c1c3n2[C@H](O)C[C@H]2CCCN(CC1)[C@H]32` (relative stereo) [Example 28, [(±) (14alpha, 16alpha)]-14,15-dihydro-10-methoxy-20,21-dinoreburnamenin-14-ol], the change in vivo at 10 mg/kg in test [2] came out at 35%.

For `COc1ccc2c3c4n(c2c1)CC[C@H]1CCCN(CC3)[C@H]41` (relative stereo) [Example 25, [(±) (16alpha)]-14,15-dihydro-11-methoxy-20,21-dinoreburnamenine], the change in vivo at 10 mg/kg in test [2] was determined as 20%.

For `O=[N+]([O-])c1ccc2c3c4n(c2c1)C=C[C@H]1CCCN(CC3)[C@H]41` (relative stereo) [Example 39, [(±) (16alpha)]-11-nitro-20,21-dinoreburnamenine], the “% of increase in survival time” value in test [3] is listed as 14%.

In the case of `O=[N+]([O-])c1cccc2c1c1c3n2C(O)CC2CCCN(CC1)C32` (racemic) [Example 40, [(±) (16alpha)]-9-nitro-14,15dihydro-20,21-dinoreburnamenin-14-ol], the “% of increase in survival time” value in test [3] is 22%.

With `Cc1ccc2c3c4n(c2c1)C=C[C@H]1CCCN(CC3)[C@H]41` (relative stereo) [Example 10, [(±) (16alpha)]-11-methyl-20,21-dinoreburnamenine], the “RAL (relative affinity, in relation to phentolamine as reference product)” value in test [1] stood at 160. Moreover, the change in vivo at 10 mg/kg in test [2] is 47%. Further, the “reversal of the effect of an electric shock treatment (passive avoidance)” value in test [4] was “reverses the anti-amnesic effect of an electric shock treatment”. Further, in test [5], the “reversal of the mnesic deficit caused by the septal cholinergic lesion (spontaneous alternation)” value is recorded as “reverses the mnesic deficit caused by the septal cholinergic lesion”. Moreover, the ED50 in test [6] is 13 mg/kg.

As for `Clc1ccc2c3c4n(c2c1)C=C[C@H]1CCCN(CC3)[C@H]41` (relative stereo) [Example 2, [(±) (16alpha)]-11-chloro-20,21-dinoreburnamenine], in test [1], the “RAL (relative affinity, in relation to phentolamine as reference product)” value is listed as 110. For the same molecule, the change in vivo at 10 mg/kg in test [2] is 43%.

As to `Clc1ccc2c(c1)c1c3n2C=C[C@H]2CCCN(CC1)[C@H]32` (relative stereo) [Example 5, [(±) 16alpha]-10-chloro-20,21-dinoreburnamenine], the “RAL (relative affinity, in relation to phentolamine as reference product)” value in test [1] was found to be 55. Besides, the change in vivo at 10 mg/kg in test [2] amounted to 26%.
